# Measurements reported in US11840528B2 (Hoffmann-La Roche Inc., priority 2018, dated 2023).
# Key:
# h-GABA-A α5β3γ2 [1] = biological target: T1, h-GABA-A α5β3γ2 (Homo sapiens, UniProt P18507+P31644); experiment: [3H]flumazenil competition binding assay, membranes of HEK293 cells expressing GABAA receptors; conditions: displacement of [3H]-Flumazenil 0.5 nM, HEK293 cells expressing human receptors, mean of two determinations; Table 1
# Procedure, shortened: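 Receptor source: human α5β3γ2 transiently transfected into HEK293 cells, membranes in pH 7.5 Krebs-tris. Filtration through GF/C, then scintillation counting.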
# h-GABA-A α5β3γ2 [2] = biological target: T1, h-GABA-A α5β3γ2; experiment: Two-electrode voltage clamp electrophysiology in Xenopus laevis oocytes expressing GABAA receptors, modulation of GABA EC20 current; assay type: cell-based; parameters: host or cells: Xenopus laevis oocytes micro-injected with RNA transcripts of the subunits; conditions: Table 1; for Efficacy (GABA) %: % modulation of GABA EC20 = 100*(Fold increase-1); for Fold increase h-GABA-A α5β3γ2 oocyte: test compound at approx. 30 fold its Ki, GABA at EC20
# Procedure, shortened: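 Modulation is reported as % of the GABA EC20 current, calculated as 100*(Fold increase−1) from the peak ratio between a second GABA response carrying compound (applied at roughly 30-fold Ki) and a preceding control response. Oocytes expressing human α5β3γ2 were clamped at −80 mV at room temperature, 3–5 days after injection.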
Structure (SMILES),Ki (h-GABA-A α5β3γ2 [1]) [nM],Efficacy (GABA) % (h-GABA-A α5β3γ2 [2]) [%],Fold increase h-GABA-A α5β3γ2 oocyte (h-GABA-A α5β3γ2 [2])
"Cc1ccc(-c2noc(C)c2Cn2ncc(N3CC(OC(C)(C)C)C3)cc2=O)nn1 [Example 234, 5-(3-(tert-butoxy)azetidin-1-yl)-2-((5-methyl-3-(6-methylpyridazin-3-yl)isoxazol-4-yl)methyl)pyridazin-3(2H)-one]",4.4,93,1.93
"Cc1ccc(-c2noc(C)c2Cn2ncc(N3CC[C@@H](OC(C)(C)C)C3)cc2=O)nn1 [Example 261, 5-[(3R)-3-tert-butoxypyrrolidin-1-yl]-2-[[5-methyl-3-(6-methylpyridazin-3-yl)isoxazol-4-yl]methyl]pyridazin-3-one]",3.6,77,1.77
"CCOc1ccc(-c2cnn(Cc3c(-c4ccc(C)nc4)noc3C)c(=O)c2)cc1 [Example 79, 5-(4-ethoxyphenyl)-2-((5-methyl-3-(6-methylpyridin-3-yl)isoxazol-4-yl)methyl)pyridazin-3(2H)-one]",16.1,111,2.11
"Cc1ccc(-c2noc(C)c2Cn2ncc(N3C4CCC3COC4)cc2=O)cn1 [Example 35, 2-[[5-methyl-3-(6-methyl-3-pyridyl)isoxazol-4-yl]methyl]-5-(3-oxa-8-azabicyclo[3.2.1]octan-8-yl)pyridazin-3-one]",0.8,179,2.79
"Cc1ccc(-c2noc(C)c2Cn2ncc(N3CC(OC4CCC4)C3)cc2=O)nn1 [Example 238, 5-[3-(cyclobutoxy)azetidin-1-yl]-2-[[5-methyl-3-(6-methylpyridazin-3-yl)isoxazol-4-yl]methyl]pyridazin-3-one]",6.8,128,2.28
"Cc1ccc(-c2noc(C)c2Cn2ncc(-c3cccc(C#N)n3)cc2=O)cn1 [Example 211, 6-(1-((5-methyl-3-(6-methyl-3-pyridyl)isoxazol-4-yl)methyl)-6-oxo-pyridazin-4-yl)pyridine-2-carbonitrile]",40.9,324,4.24
"Cc1onc(-c2ccc(Cl)nc2)c1Cn1ncc(-c2cnn(C3CC3)c2)cc1=O [Example 222, 2-((3-(6-chloropyridin-3-yl)-5-methylisoxazol-4-yl)methyl)-5-(1-cyclopropyl-1H-pyrazol-4-yl)pyridazin-3(2H)-one]",31.2,82,1.82
"COC1CN(c2cnn(Cc3c(-c4ccc(Cl)cc4)noc3C)c(=O)c2)C1 [Example 160, 2-[[3-(4-chlorophenyl)-5-methyl-isoxazol-4-yl]methyl]-5-(3-methoxyazetidin-1-yl)pyridazin-3-one]",7.4,43,1.43
"CNc1ccc(-c2cnn(Cc3c(-c4ccc(C)nc4)noc3C)c(=O)c2)cn1 [Example 174, 5-(6-(methylamino)-3-pyridyl)-2-((5-methyl-3-(6-methyl-3-pyridyl)isoxazol-4-yl)methyl)pyridazin-3-one]",21.7,101,2.01
"Cc1ccc(-c2noc(C)c2Cn2ncc(-c3cnn(C(F)F)c3)cc2=O)cn1 [Example 154, 5-(1-(difluoromethyl)-1H-pyrazol-4-yl)-2-((5-methyl-3-(6-methylpyridin-3-yl)isoxazol-4-yl)methyl)pyridazin-3(2H)-one]",23.7,244,3.44
"Cc1onc(-c2ccc(C(F)(F)F)nc2)c1Cn1ncc(N2CC(OCC(F)F)C2)cc1=O [Example 244, 5-[3-(2,2-difluoroethoxy)azetidin-1-yl]-2-[[5-methyl-3-[6-(trifluoromethyl)-3-pyridyl]isoxazol-4-yl]methyl]pyridazin-3-one]",38.8,140,2.4

# The next lines start with the values.
Ki (h-GABA-A α5β3γ2 [1]) [nM],Efficacy (GABA) % (h-GABA-A α5β3γ2 [2]) [%],Fold increase h-GABA-A α5β3γ2 oocyte (h-GABA-A α5β3γ2 [2]),Structure (SMILES)
3.2,166,2.66,"Cc1ccc(-c2noc(C)c2Cn2ncc(N3CCOCC3)cc2=O)cn1 [Example 22, 2-[[5-methyl-3-(6-methyl-3-pyridyl)isoxazol-4-yl]methyl]-5-morpholino-pyridazin-3-one]"
14.6,203,3.03,"Cc1ccc(-c2noc(C)c2Cn2ncc(N3CCC(C(F)(F)F)CC3)cc2=O)cn1 [Example 24, 2-[[5-methyl-3-(6-methyl-3-pyridyl)isoxazol-4-yl]methyl]-5-[4-(trifluoromethyl)-1-piperidyl]pyridazin-3-one]"
3.2,20,1.2,"Cc1onc(-c2ccc(Cl)cn2)c1Cn1ncc(N2CC3(CCCO3)C2)cc1=O [Example 144, 2-((3-(5-Chloropyridin-2-yl)-5-methylisoxazol-4-yl)methyl)-5-(5-oxa-2-azaspiro[3.4]octan-2-yl)pyridazin-3(2H)-one]"
58.7,164,2.64,"Cc1ccc(-c2noc(CF)c2Cn2ncc(N3CC4(CCC(F)CO4)C3)cc2=O)nn1 (single isomer, unassigned) [Example 329]"
9.4,105,2.05,"COC1CN(c2cnn(Cc3c(-c4ccc(C(F)(F)F)nn4)noc3C)c(=O)c2)C1 [Example 281, 5-(3-methoxyazetidin-1-yl)-2-((5-methyl-3-(6-(trifluoromethyl)pyridazin-3-yl)isoxazol-4-yl)methyl)pyridazin-3(2H)-one]"
19.3,132,2.32,"COC1CCN(c2cnn(Cc3c(-c4ccc(C)nc4)noc3C)c(=O)c2)CC1 [Example 139, 5-(4-methoxy-1-piperidyl)-2-[[5-methyl-3-(6-methyl-3-pyridyl)isoxazol-4-yl]methyl]pyridazin-3-one]"
12.8,124,2.24,"Cc1onc(-c2ccc(Cl)nc2)c1Cn1ncc(N2CC(OC3CC3)C2)cc1=O [Example 224, 2-((3-(6-chloropyridin-3-yl)-5-methylisoxazol-4-yl)methyl)-5-(3-cyclopropoxyazetidin-1-yl)pyridazin-3(2H)-one]"
8.6,87,1.87,"CCOC1CN(c2cnn(Cc3c(-c4ccc(C)nn4)noc3CF)c(=O)c2)C1 [Example 279, 5-(3-ethoxyazetidin-1-yl)-2-((5-(fluoromethyl)-3-(6-methylpyridazin-3-yl)isoxazol-4-yl)methyl)pyridazin-3(2H)-one]"
3,93,1.93,"Cc1ccc(-c2noc(C)c2Cn2ncc(N3CC(OC(C)(C)C(F)(F)F)C3)cc2=O)nn1 [Example 264, 2-[[5-methyl-3-(6-methylpyridazin-3-yl)isoxazol-4-yl]methyl]-5-[3-(2,2,2-trifluoro-1,1-dimethyl-ethoxy)azetidin-1-yl]pyridazin-3-one]"
2,149,2.49,"Cc1ccc(-c2noc(C)c2Cn2ncc(N3CCC4(CCCCO4)CC3)cc2=O)nn1 [Example 302, 2-[[5-methyl-3-(6-methylpyridazin-3-yl)isoxazol-4-yl]methyl]-5-(1-oxa-9-azaspiro[5.5]undecan-9-yl)pyridazin-3-one]"
20,166,2.66,"CCc1onc(-c2ccc(C)nn2)c1Cn1ncc(N2CC3(CCCCO3)C2)cc1=O [Example 324, 2-((5-ethyl-3-(6-methylpyridazin-3-yl)isoxazol-4-yl)methyl)-5-(5-oxa-2-azaspiro[3.5]nonan-2-yl)pyridazin-3(2H)-one]"
2.2,195,2.95,"CCn1nccc1C1CCN(c2cnn(Cc3c(-c4ccc(C)nc4)noc3C)c(=O)c2)CC1 [Example 167, 5-[4-(2-ethylpyrazol-3-yl)-1-piperidyl]-2-[[5-methyl-3-(6-methyl-3-pyridyl)isoxazol-4-yl]methyl]pyridazin-3-one]"
